Experimental data: PMC10192568, “Comparison of pharmacokinetic profiles of seven major bioactive components in normal and non-alcoholic fatty liver disease (NAFLD) rats after oral administration of Ling-Gui-Zhu-Gan decoction by UPLC-MS/MS” (Frontiers in Pharmacology, 2023)
Read-outs that look alike come from different tables or passages of the source.

Tests used:
[1] = Stability of the seven components in rat plasma QC samples; assay type: physicochemical; details: n = 6; for Stability during 24 h at 4°C, RE: auto sampler
Protocol: Stability refers to the ability of the components to retain their chemical properties in the matrix. To analyze the stability of all components in the plasma, six replicates of QC samples at three concentrations were hereby prepared under each condition. The stability of the QC samples at three concentrations was analyzed under different storage conditions: −80°C for 30 days, after three freeze–thaw cycles, and 24 h in an auto sampler at 4°C.

[2] = Pharmacokinetic study of LGZGD components in plasma of normal and NAFLD rats after oral administration (UPLC-MS/MS); assay type: in vivo, Male Sprague–Dawley rats; details: for MRT last: read-out: MRT0-t
Protocol: Male Sprague–Dawley rats, weighing 200–220 g, SPF grade, were purchased from Shanghai Sippr-BK laboratory animal Co. Ltd. (Shanghai, China) and raised in the Laboratory Animal Center of Shanghai University of Traditional Chinese Medicine. The rats were kept in an environmentally controlled condition: on a 12:12 h light–dark cycle (lights on at 7:00 a.m.) with regulated temperature and humidity, at a temperature of 22°C–24°C and a relative humidity of 60–65%. In the experiment, the rats in the normal group were fed a certified standard rat diet and tap water, while those in the model group were fed a high-fat diet for 8 weeks to construct the NAFLD model (high-fat diet: 2% cholesterol, 10% lard, 0.1% sodium cholate, 10% yolk powder, and 77.9% normal diet). The animal experiment program was approved by the Animal Committee of Shanghai University of Traditional Chinese Medicine (License No.: PZSHUTCM201016001).
An Agilent 1290 UPLC system was combined with an Agilent 6460 series MS/MS system (Agilent Technologies, Santa Clara, CA, United States) to quantify the analytes in the ESI-positive ionization mode. The mass spectrum conditions were as follows: a capillary voltage of 4,000 V; a gas flow rate of 10 L/min; a nebulizer of 30 psi; a gas temperature of 350°C; and a Delta EMV(+) of 200 V. Five microliters of the samples was injected into an Agilent SB-C18 column (2.1 mm × 50 mm, 1.8 μm particles). The analytes were separated using the gradient elution method, and the mobile phase was composed of water (0.05% V/V formic acid) (A) and acetonitrile (B) at a flow rate of 0.4 mL/min (0–1 min, 10–10% B; 1–5 min, 10–90% B; 5–7 min, 90–90% B; and 7–7.1 min, B 90–10%; rebalance for 2 min).
A plasma sample of 50 µL was placed in a 1.5 mL centrifuge tube with 10 µL of schisandrin (IS) solution (50 ng/mL) and mixed for 5 min. The samples were successively extracted with 500 µL of ethyl acetate and treated with 250 µL of methanol, which were then mixed for 5 min and centrifuged at 4°C for 10 min (at 18,000 rpm). All the supernatant was absorbed into another 1.5 mL centrifuge tube, dried under a gentle stream of nitrogen at 37°C, and then added with 50 µL of 50% methanol for reconstruction. After being centrifuged at 4°C for 10 min (at 18,000 rpm), 5 µL of the supernatant was extracted and injected into a chromatographic column for analysis, and the chromatograms were recorded.
The rats were randomly divided into the normal group and the model group. According to the preliminary experiment, the dose was adjusted to about eight times the normal dose ([Gu, 2020]; [Li et al., 2023]). […] The animal research program was approved by the Animal Committee of Shanghai University of Traditional Chinese Medicine. At 0, 0.083, 0.25, 0.5, 0.75, 1, 2, 4, 6, 8, 10, 12, 24, and 48 h after dosing, 150 µL blood samples were collected from the rats' orbital venous plexus into centrifuge tubes containing 10 IU of sodium heparin. After being centrifuged at 5,000 rpm (4°C) for 10 min, the plasma was transferred to 1.5 mL polypropylene tubes and stored at −80°C until the plasma samples were analyzed.
Important pharmacokinetic parameters, which included the maximum plasma concentration (C max), time to maximum concentration (T max), half-life (t 1/2), area under the curve (AUC0-t), and total area under the curve (AUC0-∞), were hereby calculated using the DAS 3.2.8 software. Meanwhile, the pharmacokinetic data of the normal and model rats were compared using the SPSS software (version 21.0). Besides, Spearman rank bivariate correlation coefficient was used to determine the correlation between AUC values and UGT1A1 and nine other transporters. All the calculated data were expressed as mean ± SD. When p < 0.05, the difference was considered significant and statistically significant; and when p < 0.01 or <0.001, the difference was considered very significant.

[3] = NAFLD rats compared with normal rats, oral LGZGD
[4] = male, Sprague-Dawley, rat, plasma, po, 23 g/kg, Model (NAFLD) group, male SD rats, oral LGZGD extract 23 g/kg, plasma, mean ± SD, n = 6
[5] = male, Sprague-Dawley, rat, plasma, po, 23 g/kg, Normal group, male SD rats, oral LGZGD extract 23 g/kg, plasma, mean ± SD, n = 6

Structure (SMILES): O=C1C[C@@H](c2ccc(O[C@@H]3O[C@H](CO)[C@@H](O)[C@H](O)[C@H]3O)cc2)Oc2cc(O)ccc21 [Liquiritin, liquiritin]
- Stability during 24 h at 4°C, RE ([1]; high QC level): −3.0%
- Stability during 24 h at 4°C, RE ([1]; low QC level): 1.4%
- Stability during 24 h at 4°C, RE ([1]; medium QC level): 5.4%
- Three freeze–thaw cycles, RE ([1]; high QC level): 4.1%
- −80°C for 30 days, RE ([1]; high QC level): −1.2%
- Three freeze–thaw cycles, RE ([1]; low QC level): 10.5%
- −80°C for 30 days, RE ([1]; low QC level): −4.1%
- Three freeze–thaw cycles, RE ([1]; medium QC level): −1.8%
- −80°C for 30 days, RE ([1]; medium QC level): 3.1%
- AUC0-∞ value decreased [2, 3]: 53.7%
- C max value decreased [2, 3]: 63.8%
- MRT0-t prolonged ([2]; NAFLD rats compared with the normal group, oral LGZGD): 31.2%
- t 1/2 ([2]; Normal group, male SD rats, oral LGZGD extract 23 g/kg, plasma, mean ± SD, n = 6): 5.2 ± 2.5 h
- AUC(0-inf) [2, 4]: 53400 ± 22100 ng·h/mL
- AUC(0-t) [2, 4]: 52800 ± 22300 ng·h/mL
- Cmax [2, 4]: 3740 ± 991 ng/mL
- Tmax [2, 4]: 6.8 ± 4.1 h
- half-life [2, 4]: 360 ± 204 min
- MRT last [2, 4]: 10.1 ± 1.3 h
- AUC(0-inf) [2, 5]: 115000 ± 32900 ng·h/mL
- AUC(0-t) [2, 5]: 115000 ± 32900 ng·h/mL
- Cmax [2, 5]: 10300 ± 1850 ng/mL
- Tmax [2, 5]: 4.8 ± 1.1 h
- MRT last [2, 5]: 7.7 ± 1.6 h
